# Assay results as given in ChEMBL document CHEMBL2073768, “Effects of xanthine derivatives on the influx and efflux of doxorubicin in P388 and DOX-resistant P388 leukemia cells” (Toxicol Lett, 2002).
# Biological target: ATP-dependent translocase ABCB1 (P-glycoprotein) (Mus musculus, UniProt P21447)
# Assay: TP_TRANSPORTER: inhibition of DOX efflux (DOX: 18? uM, XT-141: 100 uM) in P388/DOX cells
# Type: functional, cell-based
# Conditions: probe DOX (doxorubicin), read-out: Activity
# Sequence of ATP-dependent translocase ABCB1 (P-glycoprotein) (P21447 whole entry): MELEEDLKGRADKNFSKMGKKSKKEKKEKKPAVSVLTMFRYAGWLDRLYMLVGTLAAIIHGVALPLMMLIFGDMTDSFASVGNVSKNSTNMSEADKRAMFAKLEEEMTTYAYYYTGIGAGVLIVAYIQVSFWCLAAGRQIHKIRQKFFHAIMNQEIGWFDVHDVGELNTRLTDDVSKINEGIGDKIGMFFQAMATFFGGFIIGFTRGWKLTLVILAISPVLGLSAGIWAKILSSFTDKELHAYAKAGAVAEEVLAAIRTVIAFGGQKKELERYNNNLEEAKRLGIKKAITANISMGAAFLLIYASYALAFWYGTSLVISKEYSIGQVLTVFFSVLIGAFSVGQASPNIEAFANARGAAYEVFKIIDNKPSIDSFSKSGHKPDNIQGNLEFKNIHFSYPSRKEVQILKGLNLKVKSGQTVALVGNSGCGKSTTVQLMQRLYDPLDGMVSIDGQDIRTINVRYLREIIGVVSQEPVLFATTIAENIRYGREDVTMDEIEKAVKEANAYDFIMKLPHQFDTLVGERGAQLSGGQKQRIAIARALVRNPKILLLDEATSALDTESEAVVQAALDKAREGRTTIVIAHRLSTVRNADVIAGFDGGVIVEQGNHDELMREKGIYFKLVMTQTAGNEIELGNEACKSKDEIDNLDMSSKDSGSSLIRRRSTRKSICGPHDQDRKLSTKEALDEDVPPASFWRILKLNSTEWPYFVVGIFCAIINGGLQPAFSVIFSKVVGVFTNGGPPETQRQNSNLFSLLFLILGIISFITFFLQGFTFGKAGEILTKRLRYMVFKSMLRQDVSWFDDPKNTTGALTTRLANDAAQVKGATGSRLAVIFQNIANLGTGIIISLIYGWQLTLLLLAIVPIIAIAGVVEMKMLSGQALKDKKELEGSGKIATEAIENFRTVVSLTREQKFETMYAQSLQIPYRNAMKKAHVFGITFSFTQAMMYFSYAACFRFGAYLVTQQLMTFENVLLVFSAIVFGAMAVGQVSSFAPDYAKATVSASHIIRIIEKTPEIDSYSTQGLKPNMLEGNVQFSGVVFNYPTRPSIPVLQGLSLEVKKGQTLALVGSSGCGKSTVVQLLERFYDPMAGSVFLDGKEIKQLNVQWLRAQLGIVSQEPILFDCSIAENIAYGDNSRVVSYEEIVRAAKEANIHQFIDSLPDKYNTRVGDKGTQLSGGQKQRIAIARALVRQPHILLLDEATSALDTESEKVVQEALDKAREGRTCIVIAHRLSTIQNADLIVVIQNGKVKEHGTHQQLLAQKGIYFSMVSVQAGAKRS
compound,measurement,value
CCCn1c(=O)n(C)c(=O)c2c1ncn2CCCN(C)C,inhibition at 100 µM,43%
